Measured values published in US12528790B2, “Amide derivative having antiviral activity” (Shionogi & Co., Ltd., priority 2020, dated 2026).
Like-named read-outs stand apart in the source and are kept apart here.

System: RSV A2 strain
Assay: In vitro CPE (CytoPathic Effect) inhibition effect evaluation test, RSV type A
Format: cell-based
Description: The test sample is diluted in advance to an appropriate concentration with DMSO, and 3-fold series of serial dilutions were prepared on a 384-well plate (0.32 μL/well). HEp-2 cells (CCL-23; ATCC) adjusted at appropriate number (2.4×10^5 cells/mL) in 2% FBS E-MEM (prepared by adding kanamycin and FBS to Eagle's Minimum Essential Medium; Invitrogen) were added at 12.5 μL/well to the 384-well plate previously aliquoted with the test samples. The RSV A2 strain was diluted to an appropriate concentration in a culture medium and added to the 384-well plate containing the test sample at 12.5 μL/well. The culture medium was added additionally to the 384-well plate, and the test was started with 50 μL/well. Control wells were prepared with only virus-free culture medium. The plate was incubated in a 5% CO2 incubator at 37° C. for 4 days, and the plate was then placed at room temperature for 30 minutes. CellTiter-Glo (registered trademark) 2.0 assay (Promega) was added at 15 μL/well, mixed for 30 seconds, and the plate was placed for approximately 1 hour. The luminescent signal was then measured by EnVision (PerkinElmer). The inhibitory effect of the test agents on RSV-induced CPE was calculated as 0% and 100% inhibition rate for each sample concentration based on the level of remaining viable cells by CellTiter-Glo (registered trademark) 2.0, with the EC50 value for each compound calculated by nonlinear regression as the concentration that inhibits RSV-induced CPE by 50%. In the case of evaluation against RSV type B, RSV B (Wash/18537 strain) was infected in the same manner as the type A, cultured for 5 days, and quantitated in the same manner as for the A2 strain.

[1] = human respiratory syncytial virus, inhibitory effect against RSV type A (RSV A2 strain), HEp-2 cells, CPE inhibition, read-out: EC50
[2] = human respiratory syncytial virus, HEp-2
[3] = inhibitory effect against RSV type A (RSV A2 strain), HEp-2 cells, CPE inhibition, read-out: EC50

Row | Compound | EC50 [1] [nM] | further results
1 | COc1ccnc(N2CCC(Oc3ccc4c(c3)CCN4c3ncc(C(=O)NC4(C(=O)O)CCCCC4)c(C(F)(F)F)n3)CC2)c1 [Compound I-79] | 10 to 100 | –
2 | O=C(NC1(C(=O)O)CCCCC1)c1cnc(N2CCc3cc(OC4CCN(c5ccncc5)CC4)ccc32)nc1C(F)(F)F [Compound I-84] | 10 to 100 | –
3 | O=C(NC1(C(=O)O)CCCCC1)c1cnc(N2CC3(CCOCC3)c3cc(OCCN4CCOCC4)ccc32)nc1C(F)(F)F [Compound I-85] | 10 to 100 | –
4 | O=C(NC1(C(=O)O)CCCCC1)c1cnc(N2CC3(CCNCC3)c3cc(OCCC4CCOCC4)ccc32)nc1C(F)(F)F [Compound I-89] | – | EC50 [2]: 100 to 5000 nM
5 | COc1ccc2c(n1)C1(CCOCC1)CN2c1ncc(C(=O)NC2(C(=O)O)CCCCC2)c(C(F)(F)F)n1 [Compound I-90] | 100 to 5000 | –
6 | CNc1nc(N2CCc3cc(OCCC4CCOCC4)ccc32)nc(C(F)(F)F)c1C(=O)NC1(C(=O)O)C2CC3CC(C2)CC1C3 (stereo not drawn) [Compound I-95] | – | EC50 [3]: < 10 nM
7 | O=C(NC1(c2nn[nH]n2)CCCCC1)c1cnc(N2CC3(CCOCC3)c3cc(OC4CCN(c5ncccn5)CC4)ccc32)nc1C(F)(F)F [Compound I-98] | – | EC50 [2]: < 10 nM
8 | O=C(NC1(c2noc(=O)[nH]2)CCCCC1)c1cnc(N2CC3(CCOCC3)c3cc(OC4CCN(c5ncccn5)CC4)ccc32)nc1C(F)(F)F [Compound I-99] | – | EC50 [2]: < 10 nM
9 | O=C(NC1(C(=O)O)C2CC3CC(C2)CC1C3)c1ccc(N2CC3(CCOCC3)c3cc(OCCC4CCOCC4)ccc32)nc1C(F)(F)F (stereo not drawn) [Compound I-101] | – | EC50 [3]: < 10 nM
10 | O=C(NC1(C(=O)O)C2CC3CC(C2)CC1C3)c1ccc(N2CC3(CCOCC3)c3cc(OC4CCN(c5ncccn5)CC4)ccc32)nc1C(F)(F)F (stereo not drawn) [Compound I-102] | – | EC50 [3]: < 10 nM
11 | COc1cccc(COc2ccc3c(n2)C2(CCOCC2)CN3c2ncc(C(=O)NC3(C(=O)O)C4CC5CC(C4)CC3C5)c(C(F)(F)F)n2)c1 (stereo not drawn) [Compound I-104] | – | EC50 [3]: < 10 nM
12 | O=C(NC1(C(=O)O)C2CC3CC(C2)CC1C3)c1cnc(N2CC3(CCOCC3)c3nc(OCCC4CCOCC4)ccc32)nc1C(F)(F)F (stereo not drawn) [Compound I-105] | – | EC50 [3]: < 10 nM
13 | O=C(NC1(C(=O)O)C2CC3CC(C2)CC1C3)c1cnc(N2CC3(CCOCC3)c3nc(OC4CCN(c5ncccn5)CC4)ccc32)nc1C(F)(F)F (stereo not drawn) [Compound I-107] | – | EC50 [3]: < 10 nM
14 | O=C(NC1(C(=O)O)C2CC3CC(C2)CC1C3)c1cnc(N2CC3(CCOCC3)c3cc(/C=C/CC4CCOCC4)ccc32)nc1C(F)(F)F (stereo not drawn) [Compound I-110] | – | EC50 [3]: < 10 nM
15 | O=C(NC1(C(=O)O)C2CC3CC(C2)CC1C3)c1cnc(N2CC3(CCOCC3)c3cc(C=C4CCN(C(=O)OCc5ccccc5)CC4)ccc32)nc1C(F)(F)F (stereo not drawn) [Compound I-111] | – | EC50 [3]: < 10 nM
16 | CCNC(=O)N1CCC(Oc2ccc3c(c2)CCN3c2ncc(C(=O)NC3(C(=O)O)CCCCC3)c(C(F)(F)F)n2)CC1 [Compound I-112] | 10 to 100 | –
17 | Cn1cc(-c2ncc(C(=O)NC3(C(=O)O)CCCCC3)c(C(F)(F)F)n2)c2ccc(OCCC3CCOCC3)cc21 [Compound I-117] | 10 to 100 | –
18 | COc1ccc2c(c1)CCN2c1ccc(C(=O)NC2(C(=O)O)C3CC4CC(C3)CC2C4)c(C(F)(F)F)c1 (stereo not drawn) [Compound I-124] | 10 to 100 | –

Row | Compound | EC50 [1] [nM] | further results
19 | O=C(NC1(C(=O)O)C2CC3CC(C2)CC1C3)c1ccc(N2CCc3cc(OCCC4CCOCC4)cnc32)cc1C(F)(F)F (stereo not drawn) [Compound I-125] | 10 to 100 | –
20 | O=C(NC1(C(=O)O)C2CC3CC(C2)CC1C3)c1cnc(N2CC3(CCOCC3)c3cc(C4CCCC4)ccc32)nc1C(F)(F)F (stereo not drawn) [Compound I-129] | < 10 | –
21 | COCCn1cc(-c2ncc(C(=O)NC3(C(=O)O)C4CC5CC(C4)CC3C5)c(C(F)(F)F)n2)c2ccc(OCCC3CCOCC3)cc21 (stereo not drawn) [Compound I-130] | < 10 | –
22 | O=C(NC1(C(=O)O)C2CC3CC(C2)CC1C3)c1cnc(-c2cn(C3CCOCC3)c3cc(OCCC4CCOCC4)ccc23)nc1C(F)(F)F (stereo not drawn) [Compound I-131] | < 10 | –
23 | Cc1ccc2c(c1)C1(CCN(C(=O)OCc3ccccc3)CC1)CN2c1ncc(C(=O)NC2(C(=O)O)C3CC4CC(C3)CC2C4)c(C(F)(F)F)n1 (stereo not drawn) [Compound I-132] | 10 to 100 | –
24 | CCc1ccc2c(c1)C1(CCOCC1)CN2c1ncc(C(=O)NC2(C(=O)O)C3CC4CC(C3)CC2C4)c(C(F)(F)F)n1 (stereo not drawn) [Compound I-133] | < 10 | –
25 | Cc1ccc2c(c1)C1(CCNCC1)CN2c1ncc(C(=O)NC2(C(=O)O)C3CC4CC(C3)CC2C4)c(C(F)(F)F)n1 (stereo not drawn) [Compound I-134] | < 10 | –
26 | Cc1ccc2c(c1)C1(CCN(CC(F)(F)F)CC1)CN2c1ncc(C(=O)NC2(C(=O)O)C3CC4CC(C3)CC2C4)c(C(F)(F)F)n1 (stereo not drawn) [Compound I-136] | – | EC50 [2]: < 10 nM
27 | CCNC(=O)N1CCC2(CC1)CN(c1ncc(C(=O)NC3(C(=O)O)C4CC5CC(C4)CC3C5)c(C(F)(F)F)n1)c1ccc(C)cc12 (stereo not drawn) [Compound I-138] | < 10 | –
28 | Cc1ccc2c(c1)C1(CCN(c3ncccn3)CC1)CN2c1ncc(C(=O)NC2(C(=O)O)C3CC4CC(C3)CC2C4)c(C(F)(F)F)n1 (stereo not drawn) [Compound I-139] | < 10 | –
29 | CC(C)(C)OC(=O)N1CCC(NC(=O)c2cnc(N3CC4(CCOCC4)c4cc(OC5CCN(c6ncccn6)CC5)ccc43)nc2C(F)(F)F)(C(=O)O)CC1 [Compound I-140] | 10 to 100 | –
30 | O=C(NC1(C(=O)O)C2CC3CC(C2)CC1C3)c1cnc(-n2c3ccccc3c3cc(OCCC4CCOCC4)ccc32)nc1C(F)(F)F (stereo not drawn) [Compound I-141] | < 10 | –
31 | O=C(NC1(C(=O)O)C2CC3CC(C2)CC1C3)c1cnc(N2CC3(CCOCC3)c3cc(OC4CCC(n5cccn5)CC4)ccc32)nc1C(F)(F)F (stereo not drawn) [Compound I-143] | < 10 | –
32 | O=C(NC1(C(=O)O)CCNCC1)c1cnc(N2CC3(CCOCC3)c3cc(OC4CCN(c5ncccn5)CC4)ccc32)nc1C(F)(F)F [Compound I-144] | 100 to 5000 | –
33 | COC(=O)N1CCC(NC(=O)c2cnc(N3CC4(CCOCC4)c4cc(OC5CCN(c6ncccn6)CC5)ccc43)nc2C(F)(F)F)(C(=O)O)CC1 [Compound I-145] | 10 to 100 | –
34 | O=C(NC1(C(=O)O)C2CC3CC(C2)CC1C3)c1ccc(-c2cn(CC(=O)N3CCOCC3)c3cc(OC4CCN(c5ncccn5)CC4)ccc23)nc1C(F)(F)F (stereo not drawn) [Compound I-149] | < 10 | –
35 | O=C(NC1(C(=O)O)C2CC3CC(C2)CC1C3)c1ccc(-c2cn(C(=O)OC3CCCCC3)c3cc(OC4CCN(c5ncccn5)CC4)ccc23)nc1C(F)(F)F (stereo not drawn) [Compound I-150] | < 10 | –

The next lines start with results.

Row | EC50 [1] [nM] | Compound | further results
36 | < 10 | COc1ccc(N2CCC(Oc3ccc4c(c3)CCN4c3ncc(C(=O)NC4(C(=O)O)CCCCC4)c(C(F)(F)F)n3)CC2)nc1 [Compound I-78] | –
37 | < 10 | N#CC1(NC(=O)c2cnc(N3CC4(CCOCC4)c4cc(OC5CCN(c6ncccn6)CC5)ccc43)nc2C(F)(F)F)CCCCC1 [Compound I-94] | –
38 | < 10 | COc1cccc(COc2ccc3c(n2)C2(CCOCC2)CN3c2ncc(C(=O)NC3(C(=O)O)CCCCC3)c(C(F)(F)F)n2)c1 [Compound I-103] | –
39 | < 10 | O=C(NC1(C(=O)O)CCCCC1)c1cnc(N2CC3(CCOCC3)c3nc(OCCC4CCOCC4)ccc32)nc1C(F)(F)F [Compound I-106] | –
40 | < 10 | O=C(NC1(C(=O)O)CCCCC1)c1cnc(N2CC3(CCOCC3)c3nc(OC4CCN(c5ncccn5)CC4)ccc32)nc1C(F)(F)F [Compound I-108] | –
41 | < 10 | O=C(NC1(C(=O)O)C2CC3CC(C2)CC1C3)c1cnc(N2CC3(CCOCC3)c3cc(CCCC4CCOCC4)ccc32)nc1C(F)(F)F (stereo not drawn) [Compound I-114] | –
42 | < 10 | O=C(NC1(C(=O)O)C2CC3CC(C2)CC1C3)c1cnc(N2CC3(CCOCC3)c3cc(C4CC4)ccc32)nc1C(F)(F)F (stereo not drawn) [Compound I-115] | –
43 | < 10 | Cn1cc(-c2ncc(C(=O)NC3(C(=O)O)C4CC5CC(C4)CC3C5)c(C(F)(F)F)n2)c2ccc(OCCC3CCOCC3)cc21 (stereo not drawn) [Compound I-116] | –
44 | < 10 | O=C(NC1(C(=O)O)C2CC3CC(C2)CC1C3)c1cnc(N2CC3(CCOCC3)c3cc(CC4CCN(c5ncccn5)CC4)ccc32)nc1C(F)(F)F (stereo not drawn) [Compound I-119] | –
45 | < 10 | COc1ccc2c(n1)C1(CCOCC1)CN2c1ccc(C(=O)NC2(C(=O)O)C3CC4CC(C3)CC2C4)c(C(F)(F)F)n1 (stereo not drawn) [Compound I-120] | –
46 | < 10 | COc1ccc2c(c1)C1(CCOCC1)CN2c1ccc(C(=O)NC2(C(=O)O)C3CC4CC(C3)CC2C4)c(C(F)(F)F)n1 (stereo not drawn) [Compound I-121] | –
47 | < 10 | Cc1ccc2c(c1)C1(CCOCC1)CN2c1ccc(C(=O)NC2(C(=O)O)C3CC4CC(C3)CC2C4)c(C(F)(F)F)n1 (stereo not drawn) [Compound I-122] | –
48 | < 10 | O=C(NC1(C(=O)O)C2CC3CC(C2)CC1C3)c1ccc(N2CCc3cc(OCCC4CCOCC4)ccc32)cc1C(F)(F)F (stereo not drawn) [Compound I-123] | –
49 | < 10 | O=C(NC1(C(=O)O)C2CC3CC(C2)CC1C3)c1cnc(N2CCc3cc(OCCC4CCOCC4)cnc32)cc1C(F)(F)F (stereo not drawn) [Compound I-126] | –
50 | < 10 | Cn1nc(-c2ccc(C(=O)NC3(C(=O)O)C4CC5CC(C4)CC3C5)c(C(F)(F)F)n2)c2ccc(OCCC3CCOCC3)cc21 (stereo not drawn) [Compound I-127] | –
51 | < 10 | O=C(NC1(C(=O)O)C2CC3CC(C2)CC1C3)c1cnc(N2CC3(CCOCC3)c3cc(C4=CCCC4)ccc32)nc1C(F)(F)F (stereo not drawn) [Compound I-128] | –
